Data as given in patent US7067508B2, “Diaminedithiol derivatives and radiorhenium or radiotechnetium complex thereof; a liver cancer-treating composition comprising the radiorhenium complex and lipiodol; and a kit for preparation of the liver cancer-treating composition” (Seoul National University Industry Foundation, priority 2001, dated 2006).

Assay: Biodistribution of 188Re-labelled compounds in lipiodol solution in mice after tail vein injection
Format: in vivo
Settings: mice (ICR)
Experimental: To the ^188Re-labelled reaction mixture prepared in the foregoing Examples 4 to 6, lipiodol (5 ml) was added, mixed well and the solution was centrifuged at 3000 rpm for 10 min. The supernatant was removed and 2 ml saline was added. After mixing well, the resulting solution was centrifuged again at 3000 rpm for 10 min and the supernatant was removed to recover a lower phase of lipiodol.
Mice (ICR) were administered with an injection of ^188Re-labelled compound in lipiodol solution which was prepared in the Example 7 via the tail vein. Radioactivity distributed in tissues and weight of each tissue were measured to calculate the percentage of radioactivity per gram of unit tissue relative to total radioactivity administered.
As radiation accumulation mechanism in the lung and the liver cancer are similar, it is convenient to detect the level of radiation accumulating in the lung of a mouse suffering from liver cancer. […] Therefore, it can be inferred that a radiorhenium complex of a diaminedithiol derivative having a long side chain is effective for treating liver cancer.

## CCCCCCCCCCCC[N+]12CC[N]3CC(C)(C)[S][188Re-]31(=[O])[S]C(C)(C)C2 (stereo not shown) [^188Re-DTDD]
10 min post-injection
  Biodistribution, radioactivity in Blood: 13.0 ± 0.6 percentage of radioactivity per gram
  Biodistribution, radioactivity in Fat: 5.5 ± 0.4 percentage of radioactivity per gram
  Biodistribution, radioactivity in Heart: 9.1 ± 2.3 percentage of radioactivity per gram
  Biodistribution, radioactivity in Kidney: 9.9 ± 0.7 percentage of radioactivity per gram
  Biodistribution, radioactivity in Liver: 14.9 ± 0.7 percentage of radioactivity per gram
  Biodistribution, radioactivity in Lung: 137.4 ± 13.1 percentage of radioactivity per gram
  Biodistribution, radioactivity in Muscle: 2.4 ± 0.1 percentage of radioactivity per gram
  Biodistribution, radioactivity in Small intestine: 4.8 ± 0.3 percentage of radioactivity per gram
  Biodistribution, radioactivity in Spleen: 5.6 ± 0.3 percentage of radioactivity per gram
  Biodistribution, radioactivity in Stomach: 18.3 ± 4.4 percentage of radioactivity per gram
30 min post-injection
  Biodistribution, radioactivity in Blood: 9.5 ± 1.1 percentage of radioactivity per gram
  Biodistribution, radioactivity in Fat: 4.4 ± 0.8 percentage of radioactivity per gram
  Biodistribution, radioactivity in Heart: 5.0 ± 0.9 percentage of radioactivity per gram
  Biodistribution, radioactivity in Kidney: 7.4 ± 0.5 percentage of radioactivity per gram
  Biodistribution, radioactivity in Liver: 14.6 ± 2.2 percentage of radioactivity per gram
  Biodistribution, radioactivity in Lung: 85.1 ± 7.1 percentage of radioactivity per gram
  Biodistribution, radioactivity in Muscle: 2.0 ± 0.2 percentage of radioactivity per gram
  Biodistribution, radioactivity in Small intestine: 8.3 ± 0.7 percentage of radioactivity per gram
  Biodistribution, radioactivity in Spleen: 4.8 ± 0.4 percentage of radioactivity per gram
  Biodistribution, radioactivity in Stomach: 36.0 ± 5.9 percentage of radioactivity per gram
1 hr post-injection
  Biodistribution, radioactivity in Blood: 7.0 ± 0.8 percentage of radioactivity per gram
  Biodistribution, radioactivity in Fat: 4.1 ± 0.6 percentage of radioactivity per gram
  Biodistribution, radioactivity in Heart: 5.5 ± 0.4 percentage of radioactivity per gram
  Biodistribution, radioactivity in Kidney: 6.2 ± 0.7 percentage of radioactivity per gram
  Biodistribution, radioactivity in Liver: 13.2 ± 2.8 percentage of radioactivity per gram
  Biodistribution, radioactivity in Lung: 82.2 ± 15.1 percentage of radioactivity per gram
  Biodistribution, radioactivity in Muscle: 1.5 ± 0.3 percentage of radioactivity per gram
  Biodistribution, radioactivity in Small intestine: 9.7 ± 1.2 percentage of radioactivity per gram
  Biodistribution, radioactivity in Spleen: 3.5 ± 0.5 percentage of radioactivity per gram
  Biodistribution, radioactivity in Stomach: 49.2 ± 7.0 percentage of radioactivity per gram
3 hr post-injection
  Biodistribution, radioactivity in Blood: 5.1 ± 1.2 percentage of radioactivity per gram
  Biodistribution, radioactivity in Fat: 2.4 ± 0.4 percentage of radioactivity per gram
  Biodistribution, radioactivity in Heart: 2.7 ± 0.7 percentage of radioactivity per gram
  Biodistribution, radioactivity in Kidney: 5.2 ± 0.7 percentage of radioactivity per gram
  Biodistribution, radioactivity in Liver: 7.7 ± 0.6 percentage of radioactivity per gram
  Biodistribution, radioactivity in Lung: 61.9 ± 10.3 percentage of radioactivity per gram
  Biodistribution, radioactivity in Muscle: 1.0 ± 0.2 percentage of radioactivity per gram
  Biodistribution, radioactivity in Small intestine: 11.6 ± 0.3 percentage of radioactivity per gram
  Biodistribution, radioactivity in Spleen: 2.9 ± 0.6 percentage of radioactivity per gram
  Biodistribution, radioactivity in Stomach: 37.7 ± 12.3 percentage of radioactivity per gram
24 hr post-injection
  Biodistribution, radioactivity in Blood: 0.6 ± 0.2 percentage of radioactivity per gram
  Biodistribution, radioactivity in Fat: 0.6 ± 0.2 percentage of radioactivity per gram
  Biodistribution, radioactivity in Heart: 1.5 ± 0.3 percentage of radioactivity per gram
  Biodistribution, radioactivity in Kidney: 1.9 ± 0.3 percentage of radioactivity per gram
  Biodistribution, radioactivity in Liver: 3.3 ± 1.1 percentage of radioactivity per gram
  Biodistribution, radioactivity in Lung: 47.2 ± 9.2 percentage of radioactivity per gram
  Biodistribution, radioactivity in Muscle: 0.3 ± 0.0 percentage of radioactivity per gram
  Biodistribution, radioactivity in Small intestine: 9.2 ± 6.9 percentage of radioactivity per gram
  Biodistribution, radioactivity in Spleen: 3.3 ± 1.0 percentage of radioactivity per gram
  Biodistribution, radioactivity in Stomach: 5.4 ± 1.6 percentage of radioactivity per gram

## CCCCCCCCCCCCCCCC[N+]12CC[N]3CC(C)(C)[S][188Re-]31(=[O])[S]C(C)(C)C2 (stereo not shown) [^188Re-HTDD]
10 min post-injection
  Biodistribution, radioactivity in Blood: 8.1 ± 1.5 percentage of radioactivity per gram
  Biodistribution, radioactivity in Fat: 3.9 ± 1.5 percentage of radioactivity per gram
  Biodistribution, radioactivity in Heart: 9.4 ± 3.0 percentage of radioactivity per gram
  Biodistribution, radioactivity in Kidney: 7.0 ± 1.8 percentage of radioactivity per gram
  Biodistribution, radioactivity in Liver: 11.6 ± 1.7 percentage of radioactivity per gram
  Biodistribution, radioactivity in Lung: 211.3 ± 30.0 percentage of radioactivity per gram
  Biodistribution, radioactivity in Muscle: 1.9 ± 0.3 percentage of radioactivity per gram
  Biodistribution, radioactivity in Small intestine: 3.4 ± 0.5 percentage of radioactivity per gram
  Biodistribution, radioactivity in Spleen: 3.6 ± 0.8 percentage of radioactivity per gram
  Biodistribution, radioactivity in Stomach: 7.4 ± 1.6 percentage of radioactivity per gram
30 min post-injection
  Biodistribution, radioactivity in Blood: 9.1 ± 5.3 percentage of radioactivity per gram
  Biodistribution, radioactivity in Fat: 2.8 ± 0.5 percentage of radioactivity per gram
  Biodistribution, radioactivity in Heart: 6.0 ± 1.1 percentage of radioactivity per gram
  Biodistribution, radioactivity in Kidney: 6.5 ± 0.9 percentage of radioactivity per gram
  Biodistribution, radioactivity in Liver: 15.9 ± 1.6 percentage of radioactivity per gram
  Biodistribution, radioactivity in Lung: 185.6 ± 20.9 percentage of radioactivity per gram
  Biodistribution, radioactivity in Muscle: 1.5 ± 0.2 percentage of radioactivity per gram
  Biodistribution, radioactivity in Small intestine: 6.5 ± 0.6 percentage of radioactivity per gram
  Biodistribution, radioactivity in Spleen: 3.1 ± 0.2 percentage of radioactivity per gram
  Biodistribution, radioactivity in Stomach: 15.1 ± 2.9 percentage of radioactivity per gram
1 hr post-injection
  Biodistribution, radioactivity in Blood: 4.2 ± 0.5 percentage of radioactivity per gram
  Biodistribution, radioactivity in Fat: 2.7 ± 0.6 percentage of radioactivity per gram
  Biodistribution, radioactivity in Heart: 4.7 ± 0.9 percentage of radioactivity per gram
  Biodistribution, radioactivity in Kidney: 6.1 ± 1.4 percentage of radioactivity per gram
  Biodistribution, radioactivity in Liver: 14.4 ± 2.5 percentage of radioactivity per gram
  Biodistribution, radioactivity in Lung: 177.8 ± 18.4 percentage of radioactivity per gram
  Biodistribution, radioactivity in Muscle: 1.1 ± 0.2 percentage of radioactivity per gram
  Biodistribution, radioactivity in Small intestine: 9.3 ± 1.0 percentage of radioactivity per gram
  Biodistribution, radioactivity in Spleen: 3.0 ± 0.8 percentage of radioactivity per gram
  Biodistribution, radioactivity in Stomach: 21.0 ± 1.7 percentage of radioactivity per gram
3 hr post-injection
  Biodistribution, radioactivity in Blood: 2.8 ± 0.5 percentage of radioactivity per gram
  Biodistribution, radioactivity in Fat: 2.0 ± 0.6 percentage of radioactivity per gram
  Biodistribution, radioactivity in Heart: 4.5 ± 0.8 percentage of radioactivity per gram
  Biodistribution, radioactivity in Kidney: 6.2 ± 1.2 percentage of radioactivity per gram
  Biodistribution, radioactivity in Liver: 9.0 ± 1.8 percentage of radioactivity per gram
  Biodistribution, radioactivity in Lung: 157.3 ± 28.6 percentage of radioactivity per gram
  Biodistribution, radioactivity in Muscle: 0.8 ± 0.2 percentage of radioactivity per gram
  Biodistribution, radioactivity in Small intestine: 12.2 ± 1.3 percentage of radioactivity per gram
  Biodistribution, radioactivity in Spleen: 2.7 ± 0.1 percentage of radioactivity per gram
  Biodistribution, radioactivity in Stomach: 19.3 ± 4.0 percentage of radioactivity per gram
24 hr post-injection
  Biodistribution, radioactivity in Blood: 0.6 ± 0.1 percentage of radioactivity per gram
  Biodistribution, radioactivity in Fat: 0.8 ± 0.3 percentage of radioactivity per gram
  Biodistribution, radioactivity in Heart: 2.2 ± 0.8 percentage of radioactivity per gram
  Biodistribution, radioactivity in Kidney: 3.3 ± 0.7 percentage of radioactivity per gram
  Biodistribution, radioactivity in Liver: 5.6 ± 1.0 percentage of radioactivity per gram
  Biodistribution, radioactivity in Lung: 118.0 ± 19.5 percentage of radioactivity per gram
  Biodistribution, radioactivity in Muscle: 0.4 ± 0.1 percentage of radioactivity per gram
  Biodistribution, radioactivity in Small intestine: 6.2 ± 3.4 percentage of radioactivity per gram
  Biodistribution, radioactivity in Spleen: 9.3 ± 5.2 percentage of radioactivity per gram
  Biodistribution, radioactivity in Stomach: 5.5 ± 1.7 percentage of radioactivity per gram
